Measurements from US7816346B2, “Analogs of ansamycin and pharmaceutical compositions thereof” (priority 2006, dated 2010).
Read-outs that look alike come from different tables or passages of the source.

Tests used:
[1] = test system: MX-1 (human breast carcinoma) cells; experiment: in vitro growth inhibition, cytotoxicity assay (Promega CellTiter Blue Cell Viability Assay); type: cell-based; details: read-out: IC50, μM MX-1
Protocol: After 24 hrs., cells were exposed to various concentrations of compound in DMSO and cultured for another 72 hrs. 100 ul of media were removed and 20 ul of Promega CellTiter Blue reagent were added to each well and shaken to mix. […] The fluorescence produced is proportional to the number of viable cells. After plotting fluorescence produced against drug concentration, the IC50 was calculated as the […] of the resulting non-linear regression.

[2] = cited from earlier work
HSV-1 = details: cited from earlier work
cellular growth = details: read-out: concentration that inhibited cellular growth 50% in comparison with untreated controls; cited from earlier work
[3] = MX-1 cells, 72 hrs exposure, CellTiter Blue

Q: With `C=CC(=O)Nc1cc2c(O)c(c1OC)CC(C)CC(OC)C(O)C(C)C=C(C)C(OC(N)=O)C(OC)C=CC=C(C)C(=O)N2` (centres unmarked) [Compound 12, 18-N-Acrylamide-21-hydroxylgeldanamycin] as the compound, how does the IC50 [1, 3] read?
A: The IC50 was 15.3 µM.

Q: For “18-N-(3,4-Dichloro)benzamide-21-methoxylgeldanamycin [Compound 70]”, which IC50 [1, 3] is on record?
A: The IC50 was 12.4 µM.

Q: With “18-N-(4-Fluoro)benzamide-21-hydroxylgeldanamycin [Compound 8]” as the compound, how does the IC50 [1, 3] read?
A: Its IC50 is 2 µM.

Q: For “18-N-Benzamide-21-hydroxylgeldanamycin [Compound 1]”, which IC50 [1, 3] is on record?
A: Its IC50 is 1.9 µM.

Q: With “18-N-Benzylcarbamate-21-hydroxylgeldanamycin [Compound 16]” as the compound, how does the IC50 [1, 3] read?
A: Its IC50 is 0.088 µM.

Q: For `COc1c(NS(=O)(=O)c2ccc(C(F)(F)F)cc2)cc2c(O)c1CC(C)CC(OC)C(O)C(C)C=C(C)C(OC(N)=O)C(OC)C=CC=C(C)C(=O)N2` (centres unmarked) [Compound 29, 18-N-(4-trifluoromethylbenzene)sulfamide-21-hydroxylgeldanamycin], which IC50 [1, 3] is on record?
A: The IC50 was 0.078 µM.

Q: With “18-N-(2-Trifluoro)benzamide-21-hydroxylgeldanamycin [Compound 4]” as the compound, how does the IC50 [1, 3] read?
A: The IC50 was 0.68 µM.

Q: Which IC50 [1, 3] does the source give for “18-N-iso-Nicotinamide-21-hydroxylgeldanamycin [Compound 11]” here?
A: Its IC50 is 0.1 µM.

Q: Which IC50 [1, 3] does the source give for “18-N-(2-Furo)amide-21-hydroxylgeldanamycin [Compound 10]” here?
A: Its IC50 is 7.2 µM.

Q: For “18-N-(4-Methoxy)benzamide-21-hydroxylgeldanamycin [Compound 5]”, which IC50 [1, 3] is on record?
A: The IC50 was 0.29 µM.

Q: With “18-N-Benzylurea-21-hydroxylgeldanamycin [Compound 49]” as the compound, how does the IC50 [1, 3] read?
A: The IC50 was 2.4 µM.

Q: With “18-N-(4-Phenyl)benzamide-21-hydroxylgeldanamycin [Compound 6]” as the compound, how does the IC50 [1, 3] read?
A: The IC50 was 0.081 µM.

Q: For `C=CCNC1=C2C[C@@H](C)C[C@H](OC)[C@H](O)[C@@H](C)/C=C(\C)[C@H](OC(N)=O)[C@@H](OC)/C=C\C=C(/C)C(=O)NC(=CC1=O)C2=O` [Compound 17-AAG, 17-allylaminogeldanamycin, reference compound], which IC50 ([1]; Homo sapiens, MX1, 72 h) is on record?
A: The IC50 was 1.7 µM.

Q: And the water solubility [2]?
A: The water solubility was “limited aqueous solubility”.

Q: For `COC1=C2C[C@@H](C)C[C@H](OC)[C@H](O)[C@@H](C)/C=C(\C)[C@H](OC(N)=O)[C@@H](OC)/C=C\C=C(/C)C(=O)NC(=CC1=O)C2=O` [GA, Geldanamycin], which therapeutic index (HSV-1; cellular growth vs HSV-1 replication) is on record?
A: The therapeutic index was “over 3700”.

Q: And the IC50 (HSV-1; in vitro, read-out: 50% inhibitory concentration, HSV-1 replication in vitro)?
A: Its IC50 is 93 nM.

Q: What about the IC50 ([1]; Homo sapiens, MX1, MX-1 cells, 72 hrs exposure, CellTiter Blue) of the same compound?
A: The IC50 was 0.5 µM.

Q: What about the water solubility [2] of the same compound?
A: The water solubility was “poor water solubility”.

Q: And the IC50 (cellular growth)?
A: The IC50 was 350000 nM.

Q: Which IC50 [1, 3] does the source give for “18-N-(4-Nitro)benzamide-21-hydroxylgeldanamycin [Compound 3]” here?
A: Its IC50 is 0.42 µM.

Q: Which IC50 [1, 3] does the source give for “18-N-Lauramide-21-hydroxylgeldanamycin [Compound 2]” here?
A: The IC50 was 1.3 µM.

Q: Which IC50 [1, 3] does the source give for “18-N-(3,4-Dichloro)benzamide-21-hydroxylgeldanamycin [Compound 9]” here?
A: The IC50 was 0.8 µM.

Q: For “18-N-(4-Cyano)benzamide-21-hydroxylgeldanamycin [Compound 7]”, which IC50 [1, 3] is on record?
A: The IC50 was 0.13 µM.
